From patent publication US20120270293A1, “STAND[…] TISSUE SPECIMEN PR[…] […] T[…]” (priority 2009, published 2012)

Biological target: RNase A (Bos taurus, UniProt P61823)
Conditions: free solution reaction
Description: FIG. 13. RNase A at designated amount was incubated with NBF at RT or 4° C. for 5 min and then mixed with 2 μg yeast tRNA and incubated at room temperature for 30 min for RNase A digestion and separated by 2% agarose gel. The tRNA molecules were between 50-100 nucleotides in length.
We have designed a series of direct forward biochemistry experiments to compare various chemical reagents such as formalin, RNA Later, methanol/alcohol, as well as heating conditions (boiling or autoclaving) in inhibiting the RNase bioactivity. […] We also compare the inhibition ability of formalin at room temperature and 4 degree C.

RNase A, sequence (P61823 27-150): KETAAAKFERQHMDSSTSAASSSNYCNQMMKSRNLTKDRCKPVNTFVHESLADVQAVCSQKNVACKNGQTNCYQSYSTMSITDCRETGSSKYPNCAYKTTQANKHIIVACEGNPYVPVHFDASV

Q: Which results are given for C=O [formalin]?
A: inhibiting the RNase bioactivity (compared with RNA Later, methanol/alcohol, boiling or autoclaving): best RNase inhibitor; inhibition ability of formalin at room temperature and 4 degree C (room temperature versus 4 degree C): No difference
